Measurements as given in ChEMBL document CHEMBL5053484, “Structure-Based Identification of Potent Lysine-Specific Demethylase 1 Inhibitor Peptides and Temporary Cyclization to Enhance Proteolytic Stability and Cell Growth-Inhibitory Activity” (J Med Chem, 2021).
Residues, ends and D or L forms follow the SMILES beside them.

How the values were obtained:
WI-38 = assay: Antiproliferative activity against human WI-38 cells after 72 hrs by alamarBlue assay; type: cell-based; settings: WI-38, 72 h
LSD1/CoREST complex = LSD1/CoREST complex (Homo sapiens, UniProt O60341); assay: Inhibition of human LSD1/CoREST; type: protein-complex assay
HL-60 = assay: cells; settings: Homo sapiens, HL-60, 72 h
Description: Antiproliferative activity against human HL-60 cells measured after 72 hrs by alamarBlue assay

Row | Structure (SMILES) | IC50 (WI-38) [µM] | Ki (LSD1/CoREST complex) [µM] | IC50 (HL-60) [µM]
1 | CN1CCN(C(=O)CNC2CC2c2cc(F)cc(F)c2OCc2ccccc2)CC1 (centres undefined) | > 50 |  | 
2 | N=C(N)NCCC[C@H](NC(=O)[C@H](CCCNC(=N)N)NC(=O)[C@H](CCCNC(=N)N)NC(=O)[C@H](CCCNC(=N)N)NC(=O)[C@H](CCCNC(=N)N)NC(=O)[C@H](CCCNC(=N)N)NC(=O)[C@H](CCCNC(=N)N)NC(=O)[C@H](CCCNC(=N)N)NC(=O)[C@H](CCCNC(=N)N)NC(=O)[C@H](CCCNC(=N)N)NC(=O)c1cc(OCc2cn(CCO)nn2)cc(OCc2cn(CCO)nn2)c1)C(N)=O |  | 0.17 | > 100
3 | CC(C)C[C@@H]1NC(=O)[C@H](Cc2ccccc2)NC(=O)[C@H](CO)NC(=O)[C@H](CCCNC(=N)N)NC(=O)[C@@H]2CCCN2C(=O)OCCSSCCn2cc(nn2)COc2cc(cc(C(=O)N[C@@H](CCCNC(=N)N)C(=O)N[C@@H](CCCNC(=N)N)C(=O)N[C@@H](CCCNC(=N)N)C(=O)N[C@@H](CCCNC(=N)N)C(=O)N[C@@H](CCCNC(=N)N)C(=O)N[C@@H](CCCNC(=N)N)C(=O)N[C@@H](CCCNC(=N)N)C(=O)N[C@@H](CCCNC(=N)N)C(=O)N[C@@H](CCCNC(=N)N)C(=O)N[C@@H](CCCNC(=N)N)C(N)=O)c2)OCc2cn(nn2)CCSSCCOC(=O)NCCCC[C@@H](C(N)=O)NC(=O)[C@H](CCCNC(=N)N)NC(=O)[C@H](CCCNC(=N)N)NC(=O)[C@H](C(C)C)NC1=O | 41 |  | 5.2
4 | CC(C)C[C@@H]1NC(=O)[C@H](Cc2ccccc2)NC(=O)[C@H](CO)NC(=O)[C@H](CCCNC(=N)N)NC(=O)[C@@H]2CCCN2C(=O)OCCOCCn2cc(nn2)COc2cc(cc(C(=O)N[C@@H](CCCNC(=N)N)C(=O)N[C@@H](CCCNC(=N)N)C(=O)N[C@@H](CCCNC(=N)N)C(=O)N[C@@H](CCCNC(=N)N)C(=O)N[C@@H](CCCNC(=N)N)C(=O)N[C@@H](CCCNC(=N)N)C(=O)N[C@@H](CCCNC(=N)N)C(=O)N[C@@H](CCCNC(=N)N)C(=O)N[C@@H](CCCNC(=N)N)C(=O)N[C@@H](CCCNC(=N)N)C(N)=O)c2)OCc2cn(nn2)CCOCCOC(=O)NCCCC[C@@H](C(N)=O)NC(=O)[C@H](CCCNC(=N)N)NC(=O)[C@H](CCCNC(=N)N)NC(=O)[C@H](C(C)C)NC1=O | > 100 |  | 17
5 | CC(C)C[C@H](NC(=O)[C@H](Cc1ccccc1)NC(=O)[C@H](CO)NC(=O)[C@H](CCCNC(=N)N)NC(=O)[C@@H]1CCCN1)C(=O)N[C@H](C(=O)N[C@@H](CCCNC(=N)N)C(=O)N[C@@H](CCCNC(=N)N)C(=O)N[C@@H](CCCCN)C(=O)O)C(C)C (H-PRSFLVRRK-OH) | > 100 |  | > 100
